≈ marks a conversion by molar mass, not a printed value. Where two headings read alike, the source gives them in different places.
How the values were obtained:
[1] = test system: Aspergillus candidus 450 (ATCC13686); assay: MIC, antifungal spectrum (Table 3); type: cell-based
Procedure: (§1) The activities of several exemplary compounds of the present invention were assayed according to the CLSI standard M38-A2 titled “Reference Method for Broth Dilution Antifungal Susceptibility Testing of Filamentous Fungi”. However, the RPMI-1640 broth is substituted for a YPD medium formulated according to the following steps: […]
(§2) 1. Dissolve 10 g of BactoYeast extract in 500 ml water
(§3) 2. Dissolve 20 g of BactoPeptone in the above solution
(§4) 3. Dissolve 20 g Dextrose in the above solution* *Ordinary table sugar (sucrose) substituted for dextrose routinely.
(§5) 4. q.s. to 1000 ml with water

[2] = test system: Aspergillus clavatus 638 (ATCC10058); assay: MIC, antifungal spectrum (Table 3); type: cell-based
Procedure: as §1, §2, §3, §4, §5

[3] = test system: Aspergillus flavus 122 (ATCC22546); assay: MIC, antifungal spectrum (Table 3); type: cell-based
Procedure: as §1, §2, §3, §4, §5

[4] = test system: Aspergillus flavus 4787 (ATCC204304); assay: MIC, antifungal spectrum (Table 3); type: cell-based
Procedure: as §1, §2, §3, §4, §5

[5] = test system: Aspergillus flavus 626 (ATCC64025); assay: MIC, antifungal spectrum (Table 3); type: cell-based
Procedure: as §1, §2, §3, §4, §5

[6] = test system: Aspergillus fumigatus 5280 (ATCC MYA-3626); assay: MIC, antifungal spectrum (Table 3); type: cell-based
Procedure: as §1, §2, §3, §4, §5

[7] = test system: Aspergillus fumigatus 891 (ATCC204305); assay: MIC, antifungal spectrum (Table 3); type: cell-based
Procedure: as §1, §2, §3, §4, §5

[8] = test system: Aspergillus niger 624 (ATCC16888); assay: MIC, antifungal spectrum (Table 3); type: cell-based
Procedure: as §1, §2, §3, §4, §5

[9] = test system: Aspergillus ochraceus 625 (ATCC96919); assay: MIC, antifungal spectrum (Table 3); type: cell-based
Procedure: as §1, §2, §3, §4, §5

[10] = test system: Candida albicans 104 (ATCC90028); assay: MIC, antifungal spectrum (Table 3); type: cell-based
Procedure: as §1, §2, §3, §4, §5

[11] = test system: Candida albicans 2000 (ATCC10231); assay: MIC, antifungal spectrum (Table 3); type: cell-based
Procedure: as §1, §2, §3, §4, §5

[12] = test system: Candida albicans 2486 (ATCC204276); assay: MIC, antifungal spectrum (Table 3); type: cell-based
Procedure: as §1, §2, §3, §4, §5

[13] = test system: Candida albicans 2487 (ATCC MYA-2732); assay: MIC, antifungal spectrum (Table 3); type: cell-based
Procedure: as §1, §2, §3, §4, §5

[14] = test system: Candida albicans 4782 (ATCC24433); assay: MIC, antifungal spectrum (Table 3); type: cell-based
Procedure: as §1, §2, §3, §4, §5

[15] = test system: Candida albicans 633 (ATCC90029); assay: MIC, antifungal spectrum (Table 3); type: cell-based
Procedure: as §1, §2, §3, §4, §5

[16] = test system: Candida glabrata 635 (ATCC90030); assay: MIC, antifungal spectrum (Table 3); type: cell-based; conditions: Nakaseomyces glabratus
Procedure: as §1, §2, §3, §4, §5

[17] = test system: Candida guilliermondii 628 (ATCC34134); assay: MIC, antifungal spectrum (Table 3); type: cell-based; conditions: Meyerozyma guilliermondii
Procedure: as §1, §2, §3, §4, §5

[18] = test system: Candida krusei 629 (ATCC14243); assay: MIC, antifungal spectrum (Table 3); type: cell-based; conditions: Pichia kudriavzevii
Procedure: as §1, §2, §3, §4, §5

[19] = test system: Candida lusitaniae 631 (ATCC66035); assay: MIC, antifungal spectrum (Table 3); type: cell-based; conditions: Clavispora lusitaniae
Procedure: as §1, §2, §3, §4, §5

[20] = test system: Candida parapsilosis 0630 (ATCC90018); assay: MIC, antifungal spectrum (Table 3); type: cell-based; conditions: Lodderomyces parapsilosis
Procedure: as §1, §2, §3, §4, §5

[21] = test system: Candida parapsilosis 2323 (ATCC22019); assay: MIC, antifungal spectrum (Table 3); type: cell-based; conditions: Lodderomyces parapsilosis
Procedure: as §1, §2, §3, §4, §5

[22] = test system: Candida tropicalis 4783 (ATCC750); assay: MIC, antifungal spectrum (Table 3); type: cell-based
Procedure: as §1, §2, §3, §4, §5

[23] = test system: Candida tropicalis 636 (ATCC90874); assay: MIC, antifungal spectrum (Table 3); type: cell-based
Procedure: as §1, §2, §3, §4, §5

[24] = test system: Emericella nidulans 637 (ATCC96921); assay: MIC, antifungal spectrum (Table 3); type: cell-based; conditions: Aspergillus nidulans
Procedure: as §1, §2, §3, §4, §5

[25] = test system: Fusarium oxysporum 0893 (ATCC48112); assay: MIC, antifungal spectrum (Table 3); type: cell-based; conditions: at 96 hr, read-out: MIC
Procedure: as §1, §2, §3, §4, §5

[26] = test system: Issatchenkia orientalis 2322 (ATCC6258); assay: MIC, antifungal spectrum (Table 3); type: cell-based; conditions: Pichia kudriavzevii
Procedure: as §1, §2, §3, §4, §5

[27] = test system: Rhizopus oryzae 0890 (ATCC11886); assay: MIC, antifungal spectrum (Table 3); type: cell-based; conditions: Rhizopus arrhizus
Procedure: as §1, §2, §3, §4, §5

[28] = test system: Saccharomyces cerevisiae 0639 (ATCC7754); assay: MIC, antifungal spectrum (Table 3); type: cell-based
Procedure: as §1, §2, §3, §4, §5

[29] = test system: Sporothrix schenkii 892 (ATCC14284); assay: MIC, antifungal spectrum (Table 3); type: cell-based; conditions: at 96 hrs, read-out: MIC
Procedure: as §1, §2, §3, §4, §5

[30] = test system: Trychophyton mentagrophytes 5278 (ATCC MYA-4439); assay: MIC, antifungal spectrum (Table 3); type: cell-based; conditions: at 96 hrs, read-out: MIC
Procedure: as §1, §2, §3, §4, §5

[31] = test system: Trychophyton mentagrophytes 640 (ATCC 28185); assay: MIC, antifungal spectrum (Table 3); type: cell-based
Procedure: as §1, §2, §3, §4, §5

[32] = test system: Trychophyton rubrum 5279 (ATCC MYA-4438); assay: MIC, antifungal spectrum (Table 3); type: cell-based; conditions: at 72 hrs, read-out: MIC
Procedure: as §1, §2, §3, §4, §5

[33] = test system: Aspergillus fumigatus 5280 (ATCC MYA-3626); conditions: at 48 hrs; cited from earlier work
[34] = test system: Candida parapsilosis 2323 (ATCC22019); conditions: cited from earlier work

MIC ([1]; 48 hr reading): 0.03 µg/mL (≈ 0.0325 µM) | MIC ([1]; 72 hr reading): 0.06 µg/mL (≈ 0.0649 µM) | MIC ([2]; 48 hr reading): ≤ 0.004 µg/mL | MIC ([2]; 72 hr reading): 0.015 µg/mL (≈ 0.0162 µM) | MIC ([3]; 48 hr reading): 0.25 µg/mL (≈ 0.271 µM) | MIC ([3]; 72 hr reading): 0.25 µg/mL (≈ 0.271 µM) | MIC ([4]; 48 hr reading): 0.25 µg/mL (≈ 0.271 µM) | MIC ([4]; 72 hr reading): 0.25 µg/mL (≈ 0.271 µM) | MIC ([5]; 48 hr reading): 0.5 µg/mL (≈ 0.541 µM) | MIC ([5]; 72 hr reading): 0.5 µg/mL (≈ 0.541 µM) | MIC ([6]; 48 h, Aspergillus fumigatus 5280 (ATCC MYA-3626) no Tween, 48 hr reading): 1 µg/mL (≈ 1.08 µM) | MIC ([6]; 48 h, Aspergillus fumigatus 5280 (ATCC MYA-3626), 48 hr reading): 0.25 µg/mL (≈ 0.271 µM) | MIC ([6]; 72 h, Aspergillus fumigatus 5280 (ATCC MYA-3626) no Tween, 72 hr reading): 2 µg/mL (≈ 2.16 µM) | MIC ([6]; 72 h, Aspergillus fumigatus 5280 (ATCC MYA-3626), 72 hr reading): 0.5 µg/mL (≈ 0.541 µM) | MIC ([7]; 48 hr reading): 0.25 µg/mL (≈ 0.271 µM) | MIC ([7]; 72 hr reading): 1 µg/mL (≈ 1.08 µM) | MIC ([8]; 48 hr reading): 0.03 µg/mL (≈ 0.0325 µM) | MIC ([8]; 72 hr reading): 0.125 µg/mL (≈ 0.135 µM) | MIC ([9]; 48 hr reading): 0.25 µg/mL (≈ 0.271 µM) | MIC ([9]; 72 hr reading): 0.5 µg/mL (≈ 0.541 µM) | MIC ([10]; 48 hr reading): 0.3 µg/mL (≈ 0.325 µM) | MIC ([10]; 72 hr reading): 0.6 µg/mL (≈ 0.649 µM) | MIC ([11]; 48 hr reading): 0.3 µg/mL (≈ 0.325 µM) | MIC ([11]; 72 hr reading): 0.6 µg/mL (≈ 0.649 µM) | MIC ([12]; 48 hr reading): 0.06 µg/mL (≈ 0.0649 µM) | MIC ([12]; 72 hr reading): 0.06 µg/mL (≈ 0.0649 µM) | MIC ([13]; 48 hr reading): 0.06 µg/mL (≈ 0.0649 µM) | MIC ([13]; 72 hr reading): 0.06 µg/mL (≈ 0.0649 µM) | MIC ([14]; 48 hr reading): 0.3 µg/mL (≈ 0.325 µM) | MIC ([14]; 72 hr reading): 0.6 µg/mL (≈ 0.649 µM) | MIC ([15]; 48 hr reading): 0.3 µg/mL (≈ 0.325 µM) | MIC ([15]; 72 hr reading): 0.6 µg/mL (≈ 0.649 µM) | MIC ([16]; 48 hr reading): 0.03 µg/mL (≈ 0.0325 µM) | MIC ([16]; 72 hr reading): 0.125 µg/mL (≈ 0.135 µM) | MIC ([17]; 48 hr reading): 0.008 µg/mL (≈ 0.00866 µM) | MIC ([17]; 72 hr reading): 0.015 µg/mL (≈ 0.0162 µM) | MIC ([18]; 48 hr reading): 0.125 µg/mL (≈ 0.135 µM) | MIC ([18]; 72 hr reading): 0.125 µg/mL (≈ 0.135 µM) | MIC ([19]; 48 hr reading): 0.015 µg/mL (≈ 0.0162 µM) | MIC ([19]; 72 hr reading): 0.03 µg/mL (≈ 0.0325 µM) | MIC ([20]; 48 hr reading): 0.06 µg/mL (≈ 0.0649 µM) | MIC ([20]; 72 hr reading): 0.125 µg/mL (≈ 0.135 µM) | MIC ([21]; ATCC22019, 48 h, Candida parapsilosis 2323 (ATCC22019) no Tween, 48 hr reading): 0.25 µg/mL (≈ 0.271 µM) | MIC ([21]; ATCC22019, 48 h, Candida parapsilosis 2323 (ATCC22019), 48 hr reading): 0.125 µg/mL (≈ 0.135 µM) | MIC ([21]; ATCC22019, 72 h, Candida parapsilosis 2323 (ATCC22019) no Tween, 72 hr reading): 1 µg/mL (≈ 1.08 µM) | MIC ([21]; ATCC22019, 72 h, Candida parapsilosis 2323 (ATCC22019), 72 hr reading): 0.125 µg/mL (≈ 0.135 µM) | MIC ([22]; 48 hr reading): 0.06 µg/mL (≈ 0.0649 µM) | MIC ([22]; 72 hr reading): 0.125 µg/mL (≈ 0.135 µM) | MIC ([23]; 48 hr reading): 0.06 µg/mL (≈ 0.0649 µM) | MIC ([23]; 72 hr reading): 0.125 µg/mL (≈ 0.135 µM) | MIC ([24]; 48 hr reading): 1 µg/mL (≈ 1.08 µM) | MIC ([24]; 72 hr reading): 2 µg/mL (≈ 2.16 µM) | MIC [25]: 1 µg/mL (≈ 1.08 µM) | MIC ([26]; 48 hr reading): 0.125 µg/mL (≈ 0.135 µM) | MIC ([26]; 72 hr reading): 0.125 µg/mL (≈ 0.135 µM) | MIC ([27]; 48 hr reading): 0.03 µg/mL (≈ 0.0325 µM) | MIC ([27]; 72 hr reading): 0.03 µg/mL (≈ 0.0325 µM) | MIC ([28]; 48 hr reading): 0.06 µg/mL (≈ 0.0649 µM) | MIC ([28]; 72 hr reading): 0.06 µg/mL (≈ 0.0649 µM) | MIC [29]: 0.5 µg/mL (≈ 0.541 µM) | MIC [30]: 0.06 µg/mL (≈ 0.0649 µM) | MIC ([31]; 48 hr reading): 0.06 µg/mL (≈ 0.0649 µM) | MIC ([31]; 72 hr reading): 0.25 µg/mL (≈ 0.271 µM) | MIC [32]: 0.03 µg/mL (≈ 0.0325 µM)
Compound: C[C@@H]1[C@H](O)[C@@H](C)/C=C/C=C/C=C/C=C/C=C/C=C/C=C/[C@H](O[C@@H]2O[C@H](C)[C@@H](O)[C@H](N)[C@@H]2O)C[C@@H]2O[C@](O)(C[C@@H](O)C[C@@H](O)[C@H](O)CC[C@@H](O)C[C@@H](O)CC(=O)O[C@H]1C)C[C@H](O)[C@H]2C(=O)O [Amphotericin, Amphotericin B]
Amphotericin B CLSI QC Range for A. Fumigatus ATCC MYA-3626 [33]: 0.5-4 at 48 hrs μg/ml | Amphotericin B CLSI QC Range for C. parapsilosis ([34]; 24 hrs): 0.25-2 (24 hrs) μg/ml | Amphotericin B CLSI QC Range for C. parapsilosis ([34]; 48 hrs): 0.5-4 (48 hrs) μg/ml
